The test system of one data set is MDR1 (P-glycoprotein). Kind of data set: MDR1-MDCK effective efflux assay (Transwell, 10 μM, 1 hour), MDR1-MDCK cells. Type of data set: in vitro ADME. Conditions: dog, MDCK-MDR1, pH 7.4, MDR1-MDCK cells, apical to basolateral (A>B), 10 μM, 1 hour; read-out: Papp AB MDR1. In a few lines: (§1)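 Wild-type and MDR1-MDCK monolayers cultured 3 days were dosed with compound at 10 μM (0.1% DMSO) in HBSS/25 mM HEPES pH 7.4, in both A>B and B>A directions, for 1 h at 37 °C. Samples were quantified by LC-MS/MS to give Papp and efflux ratio. Effective efflux ratio = ER(MDR1-MDCK)/ER(wild-type); Lucifer Yellow checked monolayer integrity.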

Data set [1] is described as follows: MDR1-MDCK effective efflux assay (Transwell, 10 μM, 1 hour), wild-type MDCK cells. Type of data set: in vitro ADME. Conditions: dog, MDCK, pH 7.4, wild-type MDCK cells, apical to basolateral (A>B), 10 μM, 1 hour; read-out: Papp AB WT. Put shortly: as §1

Take `FC(F)CN1Cc2cc(Cl)ccc2-n2c(nnc2C2CC3(C2)CN(c2ccccn2)C3)C1` [compound 52]: the Papp A→B at 1 h, 10 μM with MDR1 (P-glycoprotein) was 10 to 20 ×10⁻⁶ cm/s; in data set [1], greater than 20 ×10⁻⁶ cm/s.
Regarding `Clc1ccc2c(c1)CN(C1CC1)Cc1nnc(C3CC4(C3)CN(c3ccccn3)C4)n1-2` [compound 56], the Papp A→B at 1 h, 10 μM (with MDR1 (P-glycoprotein); in data set [1]) was greater than 20 ×10⁻⁶ cm/s each time.
Regarding `FCCN1Cc2cc(Cl)ccc2-n2c(nnc2C2CC3(C2)CN(c2ccccn2)C3)C1` [compound 59], the Papp A→B at 1 h, 10 μM with MDR1 (P-glycoprotein) is 7 to 10 ×10⁻⁶ cm/s; in data set [1] it was greater than 20 ×10⁻⁶ cm/s.
For the molecule `COC(=O)N1Cc2cc(Cl)ccc2-n2c(nnc2C2CC3(C2)CN(c2ccc(F)cn2)C3)C1` [compound 61], the Papp A→B at 1 h, 10 μM in the data set with MDR1 (P-glycoprotein) was 10 to 20 ×10⁻⁶ cm/s; in data set [1], greater than 20 ×10⁻⁶ cm/s.
In the same order, the values of `CC(C)C(=O)N1Cc2cc(Cl)ccc2-n2c(nnc2C2CC3(C2)CN(c2ccc(F)cn2)C3)C1` [compound 63] are less than 7 ×10⁻⁶ cm/s and greater than 20 ×10⁻⁶ cm/s.
Regarding `CC(=O)N1Cc2cc(Cl)ccc2-n2c(nnc2C2CC3(C2)CN(c2ccc(F)cn2)C3)C1` [compound 64], the Papp A→B at 1 h, 10 μM in the data set with MDR1 (P-glycoprotein) was less than 7 ×10⁻⁶ cm/s; in data set [1], 10 to 20 ×10⁻⁶ cm/s.
For `CCOC(=O)N1Cc2cc(Cl)ccc2-n2c(nnc2C2CC3(C2)CN(c2ccc(F)cn2)C3)C1` [compound 69], the Papp A→B at 1 h, 10 μM (in the data set with MDR1 (P-glycoprotein); in data set [1]) was greater than 20 ×10⁻⁶ cm/s each time.
As for `COC(=O)N1Cc2cc(Cl)ccc2-n2c(nnc2C2CC3(C2)CN(c2ccccn2)C3)C1` [compound 70], the Papp A→B at 1 h, 10 μM with MDR1 (P-glycoprotein) was 10 to 20 ×10⁻⁶ cm/s; in data set [1], greater than 20 ×10⁻⁶ cm/s.
In the same order, the values of `CCC(=O)N1Cc2cc(Cl)ccc2-n2c(nnc2C2CC3(C2)CN(c2ccc(F)cn2)C3)C1` [compound 72] are less than 7 ×10⁻⁶ cm/s and greater than 20 ×10⁻⁶ cm/s.
For the molecule `CC(CF)OC(=O)N1Cc2cc(Cl)ccc2-n2c(nnc2C2CC3(C2)CN(c2ccc(F)cn2)C3)C1` (centres unmarked) [compound 78], the Papp A→B at 1 h, 10 μM (in the data set with MDR1 (P-glycoprotein); in data set [1]) was greater than 20 ×10⁻⁶ cm/s in each case.
With `O=C(OC(CF)CF)N1Cc2cc(Cl)ccc2-n2c(nnc2C2CC3(C2)CN(c2ccc(F)cn2)C3)C1` [compound 79], the values for the Papp A→B at 1 h, 10 μM (in the data set on MDR1 (P-glycoprotein); in data set [1]) were 10 to 20 ×10⁻⁶ cm/s and greater than 20 ×10⁻⁶ cm/s, respectively.
As to `O=C(OC1CC1)N1Cc2cc(Cl)ccc2-n2c(nnc2C2CC3(C2)CN(c2ccc(F)cn2)C3)C1` [compound 90], the Papp A→B at 1 h, 10 μM (in the data set with MDR1 (P-glycoprotein); in data set [1]) was greater than 20 ×10⁻⁶ cm/s in each case.
On to `O=C(C(F)F)N1Cc2cc(Cl)ccc2-n2c(nnc2C2CC3(C2)CN(c2ccccn2)C3)C1` [compound 122], for which the Papp A→B at 1 h, 10 μM with MDR1 (P-glycoprotein) is 7 to 10 ×10⁻⁶ cm/s; in data set [1], greater than 20 ×10⁻⁶ cm/s.
With `COC(=O)N1Cc2cc(Cl)ccc2-n2c(C3CC4(C3)CN(c3cnccn3)C4)nnc2C1C` (centres unmarked) [compound 165], the Papp A→B at 1 h, 10 μM with MDR1 (P-glycoprotein) was 7 to 10 ×10⁻⁶ cm/s; in data set [1], greater than 20 ×10⁻⁶ cm/s.
`CCOC(=O)N1Cc2cc(Cl)ccc2-n2c(C3CC4(C3)CN(c3ccc(F)cn3)C4)nnc2C1C` (centres unmarked) [compound 169]: the Papp A→B at 1 h, 10 μM (in the data set with MDR1 (P-glycoprotein); in data set [1]) was greater than 20 ×10⁻⁶ cm/s throughout.
Consider `CC1c2nnc(C3CC4(C3)CN(c3ncc(F)cn3)C4)n2-c2ccc(Cl)cc2CN1C(=O)OC1(C)CC1` (centres unmarked) [compound 173], for which the Papp A→B at 1 h, 10 μM (in the data set with MDR1 (P-glycoprotein); in data set [1]) was greater than 20 ×10⁻⁶ cm/s in each case.
With `CC1c2nnc(C3CC4(C3)CN(c3ccc(F)cn3)C4)n2-c2ccc(Cl)cc2CN1C(=O)C1(F)CC1` (centres unmarked) [compound 174], the Papp A→B at 1 h, 10 μM (in the data set with MDR1 (P-glycoprotein); in data set [1]) was greater than 20 ×10⁻⁶ cm/s throughout.
As to `COC(=O)N1Cc2cc(Cl)ccc2-n2c(C3CC4(C3)CN(c3cccc(C)n3)C4)nnc2C1C` (centres unmarked) [compound 180], the Papp A→B at 1 h, 10 μM (in the data set on MDR1 (P-glycoprotein); in data set [1]) was greater than 20 ×10⁻⁶ cm/s in each case.
Regarding `COC(=O)N1Cc2cc(Cl)ccc2-n2c(C3CC4(C3)CN(c3ncccc3F)C4)nnc2C1C` (centres unmarked) [compound 182], the Papp A→B at 1 h, 10 μM (with MDR1 (P-glycoprotein); in data set [1]) was greater than 20 ×10⁻⁶ cm/s in each case.

For the origin of these results see US11186577B2, “Vasopressin receptor antagonists and products and methods related thereto” (BlackThorn Therapeutics, Inc., priority 2017, dated 2021).
